Tests used:
Format in all cases: cell-based
[1] = biological target: T1, EGFR-L858R/C797S (H1975-clone #8 cells) (Homo sapiens, UniProt P00533, C797S/L858R); assay: Cell degradation of EGFR, HTRF assay, H1975-clone#8 (L858R/C797S) cells; conditions: 16 h treatment; for DC50: EGFR degradation; for Dmax: maximum percentage of degradation
T1 construct: expressed in transfected cells; host or cells: H1975 (endogenous EGFR knocked out, clone #8)

[2] = biological target: p-EGFR Del19/C797S (H1975-clone #23 cells) (Homo sapiens, UniProt P00533); assay: Cell p-EGFR inhibition assay, HTRF, H1975-clone#23 (DEL19/C797S) cells; conditions: 16 h treatment; for Imax (%): maximum percentage of pEGFR inhibition; for IC50: pEGFR inhibition
Summary of the method: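 Phospho-EGFR read by overnight HTRF on lysates, normalized to DMSO-treated high control; IC50, Hill slope and Imax fitted. Compounds were applied for 16 h (10 uM top, 5-fold steps, 8 doses) to an H1975 single clone carrying only exogenous Del19/C797S EGFR after sgRNA knockout of endogenous copies.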

[3] = biological target: T2, EGFR L858R (BaF3-L858R cells) (Homo sapiens, UniProt P00533, L858R); assay: Cell degradation of EGFR, HTRF assay, BaF3-L858R cells; conditions: 16 h treatment; for DC50: EGFR degradation; for Dmax: maximum percentage of degradation
T2 construct: host or cells: BaF3
Summary of the method: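 EGFR L858R levels measured by HTRF antibody pair in lysed BaF3-L858R cells after 16 h compound exposure (8-point 5-fold series from 10 uM final, 37° C). Degradation is relative to DMSO-only cells; DC50 fitted with Hill equation, Dmax taken as the largest percent loss.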

[4] = biological target: T3, p-EGFR L858R (BaF3-L858R cells) (Homo sapiens, UniProt P00533, L858R); assay: Cell p-EGFR inhibition assay, HTRF, BaF3-L858R cells; conditions: 16 h treatment; for Imax (%): maximum percentage of pEGFR inhibition; for IC50: pEGFR inhibition
T3 construct: host or cells: BaF3
Summary of the method: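 BaF3-L858R cells treated 16 h at 37 °C, 5% CO2 with compound from 10 uM top, 5-fold dilutions, 8 doses, in 0.1% DMSO medium. Lysates read overnight by HTRF p-EGFR antibodies; IC50 fitted to four-parameter curve against DMSO high control.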

Row | DC50 [1] [nM] | Dmax [1] [%] | Imax (%) [2] [%] | IC50 [2] [nM] | DC50 [3] [nM] | Dmax [3] [%] | Imax (%) [4] [%] | IC50 [4] [nM] | SMILES
1 | 1.7 | 87.5 | 100.67 | 1.4 | 1.04 | 91.9 | 88.5 | 1.5 | COC[C@H]1CN(c2ccc3c(c2)N2C[C@@H]4CC[C@H](COc5c(c(C)nn5C)-c5cc(cc(C)n5)C(=O)/N=C/2N3)C4)CCN1C1CCN(c2ccc(NC3CCC(=O)NC3=O)cc2C)CC1 (stereo partly drawn) [Example 207, 3-((4-(4-((R)-2-(methoxymethyl)-4-((7R,7^3S,E)-1^1,1^3,2^6-trimethyl-3-oxo-5^2,5^3-dihydro-1^1H,5^1H-9-oxa-4-aza-5(2,1)-benzo[d]imidazola-2(2,4)-pyridina-1(4,5)-pyrazola-7(1,3)-cyclopentanacyclononaphane-5^6-yl)piperazin-1-yl)piperidin-1-yl)-3-methylphenyl)amino)piperidine-2,6-dione]
2 | 1.01 | 70.7 | 99.76 | 3.02 | 0.67 | 91.6 | 91.5 | 1.21 | COC[C@H]1CN(c2ccc3c(c2)N2C[C@@H]4CC[C@H](COc5c(cnn5C)-c5cc(cc(C)n5)C(=O)/N=C/2N3)C4)CCN1C1CN(C2CCN(c3cc(F)c([C@H]4CCC(=O)NC4=O)c(F)c3)CC2)C1 [Example 208, (R)-3-(4-(4-(3-((R)-4-((7^1R,7^3S,E)-1^1,2^6-dimethyl-3-oxo-5^2,5^3-dihydro-1^1H,5^1H-9-oxa-4-aza-5(2,1)-benzo[d]imidazola-2(2,4)-pyridina-1(4,5)-pyrazola-7(1,3)-cyclopentanacyclononaphane-5^6-yl)-2-(methoxymethyl)piperazin-1-yl)azetidin-1-yl)piperidin-1-yl)-2,6-difluorophenyl)piperidine-2,6-dione]
3 | 3.72 | 86.9 | 99.96 | 1.56 | 0.74 | 90.2 | 89.17 | 1.04 | Cc1cc2cc(n1)-c1c(C)nn(C)c1OC[C@H]1CC[C@H](C1)CN1/C(=N/C2=O)Nc2ccc(N3CCN(CC4CN(c5cc(F)c([C@H]6CCC(=O)NC6=O)c(F)c5)C4)[C@@H](CF)C3)cc21 [Example 210, (R)-3-(2,6-difluoro-4-(3-(((R)-2-(fluoromethyl)-4-((7R,7^3S,E)-1^1,1^3,2^6-trimethyl-3-oxo-5^2,5^3-dihydro-1^1H,5^1H-9-oxa-4-aza-5(2,1)-benzo[d]imidazola-2(2,4)-pyridina-1(4,5)-pyrazola-7(1,3)-cyclopentanacyclononaphane-5^6-yl)piperazin-1-yl)methyl)azetidin-1-yl)phenyl)piperidine-2,6-dione]
4 | 3.07 | 88.8 | 99.96 | 1.6 | 0.73 | 91.3 | 89.34 | 2.05 | Cc1cc2cc(n1)-c1c(C)nn(C)c1OC[C@H]1CC[C@H](C1)CN1/C(=N/C2=O)Nc2ccc(N3CCN(C4CCN(c5cc(F)c([C@H]6CCC(=O)NC6=O)c(F)c5)CC4)C[C@@H]3CF)cc21 [Example 211, (R)-3-(2,6-difluoro-4-(4-((R)-3-(fluoromethyl)-4-((7R,7^3S,E)-1^1,1^3,2^6-trimethyl-3-oxo-5^2,5^3-dihydro-1^1H,5^1H-9-oxa-4-aza-5(2,1)-benzo[d]imidazola-2(2,4)-pyridina-1(4,5)-pyrazola-7(1,3)-cyclopentanacyclononaphane-5^6-yl)piperazin-1-yl)piperidin-1-yl)phenyl)piperidine-2,6-dione]
